Experiments:
[1] = tested on: hESCs (H9); assay: Mesodermal differentiation of hPSCs with CHIR99021 (qRT-PCR, flow cytometry); assay type: cell-based, human
Method: A clinically compatible stepwise protocol was developed which follows endothelial development (FIG. 1A). To develop a fully defined system, KnockOut™ Serum Replacement substituted for animal serum and feeder cells. As a first step, two coating materials were compared (collagen and Matrigel™), and induced differentiation of hPSCs into the mesodermal lineage using CHIR99021, a GSK3β inhibitor which mimics Wnt activation. hESCs (H9) were plated onto dishes coated with 0.01% collagen or 10% Matrigel™ and were cultured for 3, 5, and 7 days in hESC medium with or without 3 µM CHIR99021. […] Flow cytometry analyses confirmed that the percentage of KDR+ cells was highest (51.2±4.3%) under these conditions.
The hESCs (H1, H7, and H9) and hiPSCs (BJ1 and PGP1 obtained from Dr. George Daley) were cultured in mTeSR™ 1 (STEMCELL Technologies) on 5% matrigel at 37° C., 5% CO2. For directed differentiation, enzymatically dissociated clumps of hPSCs (lower than passage 60) were cultured on 0.01% collagen-coated plates in DMEMF-12 including 20% Serum Replacement (SR) with or without addition of specific differentiation factors for 7-10 days. hPSCs were cultured on collagen coated plates for an additional 14 days.

[2] = tested on: mesodermally differentiated hPSCs; assay: Endothelial differentiation of mesodermally differentiated hPSCs with or without DLL4 (qRT-PCR, flow cytometry); assay type: cell-based, human
Description: Flow cytometric analyses also confirmed increases in PECAM1, CDH5, and VWF (FIG. 1D) and decreases in PTPRC (CD45), CD34, KIT (CD117), and PROM1 (CD133). […] Similar results were found in three hESC lines (H1, H7, and H9) and two hiPSC lines (BJ1 and PGP1) by flow cytometry and qRT-PCR. […] Immunocytochemistry confirmed expression of EC markers VWF and CDH5 as well.

| Molecule | percentage of KDR+ cells ([1]; hESCs (H9), collagen coating, 3 µM CHIR99021, 3 days, flow cytometry) [%] | POU5F1 (OCT4) expression ([1]; qRT-PCR) | expression of definitive ectoderm (SOX1) and endoderm (FOXA2) markers ([1]; qRT-PCR) | T (Brachyury) and KDR transcripts ([1]; qRT-PCR, collagen coating and CHIR99021 treatment for 3 days, vs Matrigel, 5 and 7 days, no CHIR99021) | PECAM1, CDH5, and VWF by flow cytometry ([2]; day 14, with vs without DLL4) | PTPRC (CD45), CD34, KIT (CD117), and PROM1 (CD133) by flow cytometry ([2]; day 14, with vs without DLL4) | KDR, PECAM1, CDH5 and VWF expression ([2]; qRT-PCR, day 14, addition of DLL4) |
| --- | --- | --- | --- | --- | --- | --- | --- |
| Cc1cnc(-c2cnc(NCCNc3ccc(C#N)cn3)nc2-c2ccc(Cl)cc2Cl)[nH]1 [CHIR99021, 6-[[2-[[4-(2,4-dichlorophenyl)-5-(5-methyl-1H-imidazol-2-yl)-2-pyrimidinyl]amino]ethyl]amino]-3-pyridinecarbonitrile] | 51.2±4.3 | reduced | not significantly changed | most highly expressed | – | – | – |
| DLL4: polypeptide comprising a mature human or mammalian peptide sequence encoded by a DLL4 gene; a Notch ligand | – | – | – | – | increases | decreases | further increased |
